≈ marks a conversion by molar mass, not a printed value.
Tests used:
[1] = Cytotoxicity to HeLa cells in tissue culture testing; assay type: cell-based; settings: human, G.I. = growth inhibition: at the concentration shown the compound inhibited growth of the tissue culture, read-out: Cytotoxicity (G.I.)
Method: (§1) Monolayered HeLa cells in 16 millimeter (mm) tissue culture dishes were treated with 1 ml of culture medium (Eagles medium supplemented with fetal calf serum) containing subject compound at an appropriate concentration or containing no compound at all. Culture media such as those described herein are more fully described in standard texts, as for example, Kuchler's Biochemical Methods in Cell Culture and Virology, Dowden, Hutchinson and Ross, Inc., Stroudsberg, PA (1977). Following treatment, cells were challenged with 0.05 ml of rhinovirus type 1A (RV-1A), rhinovirus type 2 (RV-2) or Coxsackie A21 virus (Cox A21) in culture medium. Some of the compounds were also tested against rhinovirus type 5 (RV-5), rhinovirus type 8 (RV-8) or rhinovirus type 64 (RV-64). Cell controls received no viruses.
^x Cytotoxicity figures represent the concentration of the compound,
micrograms/milliliter (μg/ml) found to be toxic to the cell.
means "approximately "; "<<" "considerably less than " and "G.I." means

[2] = system: Coxsackie A21 virus (Cox A21); assay: Tissue culture antiviral test (HeLa cells), Cox A21; assay type: cell-based; settings: 48 and 72 hours post-treatment, read-out: Lowest concentration necessary to cause a 50 percent reduction in cytopathic effect, Cox A21
Method: as §1
(§2) ^xx Lowest concentration of the compound (μg/ml) necessary to caus
(§3) a 50 percent reduction in cytopathic effect.

rhinovirus type 17 = assay: Inhibition of cytopathic effect in Wl-38 cells, type 17; assay type: cell-based; settings: Enterovirus, WI-38, 25 μg/ml, Wl-38 human embryonic lung cells, read-out: inhibition grade
Method: (§4) Solutions of 4-(4-(methylsulfonyl)phenoxy)-1,2-dichlorobenzene were prepared by dissolving 5 milligrams of the compound in 0.1 ml dimethyl sulfoxide and incubating at 56° C. for at least 15 minutes. This solution was added to 0.9 ml of warmed (56° C.) maintenance medium (49% Eagles, 49% medium 199, 2% fetal calf serum and antibiotics), and the resulting 1.0 ml was then added to 9 ml of warmed (56° C.) maintenance medium. From this solution the final concentrations of 100, 50, 25, or 12.5 μg/ml were made up with maintenance medium.
(§5) Triplicate cell culture tubes (Wl-38 human embryonic lung cell culture tubes) were fed with 1 ml of medium containing the compound at specified concentrations and inoculated with 3-300 TCID50 (3-300 times the tissue culture infective dose 50, i.e., the dose required to infect 50% of the cell cultures tested. Simultaneous viral titrations were performed. The tissue cultures were supplemented with fresh medium when necessary (around 3-4 days) until viral titrations were completed.
(§6) The cell culture tubes were examined daily for cytopathic effect. […] Comparisons were made at that time with the percentage of cell sheet destruction in tubes containing virus compound mixtures. Observed differences of 75% or more were graded "+", 74-50% as "±", and less than 50% as "-" inhibition.

Cox A21 = assay: Single Oral Dose test in Cox A21 infected mice; assay type: in vivo, Swiss male mice
Method: In addition, some of the compounds were tested in animals utilizing the following procedure, hereinafter referred to as the "Single Oral Dose" test. Swiss male mice, 10-12 grams in weight were challenged intraperitoneally (IP) with 0.2 ml of a normally lethal dose, i.e. a virus dose sufficient to cause .congruent.80-100% mortality in infected animals within 10 days of challenge of Cox A21, in phosphate buffered saline containing 1% heat inactivated fetal calf serum. Three hours later mice were treated orally (P.O.) with 0.2 ml of compound suspended in 0.5% hydroxypropyl methylcellulose (Methocel) or with 0.2 ml of 0.5% Methocel containing no compound. […] Mice were observed daily for 7-10 days post-challenge and deaths recorded. A modified Mantel-Haenzel combined chi-square procedure was used to determine significant difference between virus control and treated groups. Chi-square values greater than 3.84 are considered significant (95% confidence level) in this test.

Coxsackie A21 virus = assay: Continuous Oral Feeding test in Coxsackie A21 infected mice; assay type: in vivo; settings: in diet
Method: Some of the compounds were also tested in animals utilizing the following procedure, hereinafter referred to as the "Continuous Oral Feeding" test. Coxsackie A21 virus grown on HeLa cells was administered at a concentration that produces 80 to 100% deaths in mice weighing 10 to 11 grams within 10 days, when the mice are injected (IP) with 0.2 ml of virus preparation. Mice were placed on diets containing test compound dispersed in plain commercially available rodent mash chow at a concentration of 0.05% (weight percent) on day 0. On day 1 the mice were challenged with the virus preparation, 0.2 ml/mouse, (IP). Deaths in both control and experimental groups were recorded for the 10 days and the results analyzed by a chi-square (X^2) test. Chi-square values greater than 3.84 indicate the compound is active (95% confidence level).
^xxx Percent (by weight) of test compound in the diet fed to test

rhinovirus type 10 = assay: Inhibition of cytopathic effect in Wl-38 cells, type 10; assay type: cell-based; settings: Enterovirus, WI-38, 25 μg/ml, Wl-38 human embryonic lung cells, read-out: inhibition grade
Method: as §4, §5, §6

rhinovirus type 8 = assay: Inhibition of cytopathic effect in Wl-38 cells, type 8; assay type: cell-based; settings: Enterovirus, WI-38, 25 μg/ml, Wl-38 human embryonic lung cells, read-out: inhibition grade
Method: as §4, §5, §6

[3] = Acute oral toxicity in beagle dogs; settings: dog, in vivo
rhinovirus type 56 = assay: Inhibition of cytopathic effect in Wl-38 cells, type 56; assay type: cell-based; settings: Enterovirus, WI-38, 25 μg/ml, Wl-38 human embryonic lung cells, read-out: inhibition grade
Method: as §4, §5, §6

rhinovirus type 2 (RV-2) = assay: Tissue culture antiviral test (HeLa cells), RV-2; assay type: cell-based; settings: Enterovirus, 48 and 72 hours post-treatment, read-out: Lowest concentration necessary to cause a 50 percent reduction in cytopathic effect, RV-2
Method: as §1, §2, §3

rhinovirus type 58 = assay: Inhibition of cytopathic effect in Wl-38 cells, type 58; assay type: cell-based; settings: Enterovirus, WI-38, 25 μg/ml, Wl-38 human embryonic lung cells, read-out: inhibition grade
Method: as §4, §5, §6

rhinovirus type 4 = assay: Inhibition of cytopathic effect in Wl-38 cells, type 4; assay type: cell-based; settings: Enterovirus, WI-38, 25 μg/ml, Wl-38 human embryonic lung cells, read-out: inhibition grade
Method: as §4, §5, §6

rhinovirus type 6 = assay: Inhibition of cytopathic effect in Wl-38 cells, type 6; assay type: cell-based; settings: Enterovirus, WI-38, 25 μg/ml, Wl-38 human embryonic lung cells, read-out: inhibition grade
Method: as §4, §5, §6

rhinovirus type 75 = assay: Inhibition of cytopathic effect in Wl-38 cells, type 75; assay type: cell-based; settings: Enterovirus, WI-38, 25 μg/ml, Wl-38 human embryonic lung cells, read-out: inhibition grade
Method: as §4, §5, §6

rhinovirus type 74 = assay: Inhibition of cytopathic effect in Wl-38 cells, type 74; assay type: cell-based; settings: Enterovirus, WI-38, 25 μg/ml, Wl-38 human embryonic lung cells, read-out: inhibition grade
Method: as §4, §5, §6

Acute toxicity in rats = settings: rat, in vivo
rhinovirus type 59 = assay: Inhibition of cytopathic effect in Wl-38 cells, type 59; assay type: cell-based; settings: Enterovirus, WI-38, 25 μg/ml, Wl-38 human embryonic lung cells, read-out: inhibition grade
Method: as §4, §5, §6

[4] = system: rhinovirus type 64 (RV-64); assay: Tissue culture antiviral test (HeLa cells), RV-64; assay type: cell-based; settings: Enterovirus, 48 and 72 hours post-treatment, read-out: Lowest concentration necessary to cause a 50 percent reduction in cytopathic effect, RV-64
Method: as §1, §2, §3

rhinovirus type 29 = assay: Inhibition of cytopathic effect in Wl-38 cells, type 29; assay type: cell-based; settings: Enterovirus, WI-38, 25 μg/ml, Wl-38 human embryonic lung cells, read-out: inhibition grade
Method: as §4, §5, §6

rhinovirus type 68 = assay: Inhibition of cytopathic effect in Wl-38 cells, type 68; assay type: cell-based; settings: Enterovirus, WI-38, 25 μg/ml, Wl-38 human embryonic lung cells, read-out: inhibition grade
Method: as §4, §5, §6

[5] = system: Hank's (untyped) rhinovirus; assay: Inhibition of cytopathic effect in Wl-38 cells, Hank's (untyped); assay type: cell-based; settings: Enterovirus, WI-38, 25 μg/ml, Wl-38 human embryonic lung cells, read-out: inhibition grade
Method: as §4, §5, §6

rhinovirus type 64 = assay: Inhibition of cytopathic effect in Wl-38 cells, type 64; assay type: cell-based; settings: Enterovirus, WI-38, 25 μg/ml, Wl-38 human embryonic lung cells, read-out: inhibition grade
Method: as §4, §5, §6

rhinovirus type 60 = assay: Inhibition of cytopathic effect in Wl-38 cells, type 60; assay type: cell-based; settings: Enterovirus, WI-38, 25 μg/ml, Wl-38 human embryonic lung cells, read-out: inhibition grade
Method: as §4, §5, §6

rhinovirus type 13 = assay: Inhibition of cytopathic effect in Wl-38 cells, type 13; assay type: cell-based; settings: Enterovirus, WI-38, 25 μg/ml, Wl-38 human embryonic lung cells, read-out: inhibition grade
Method: as §4, §5, §6

rhinovirus type 8 (RV-8) = assay: Tissue culture antiviral test (HeLa cells), RV-8; assay type: cell-based; settings: Enterovirus, 48 and 72 hours post-treatment, read-out: Lowest concentration necessary to cause a 50 percent reduction in cytopathic effect, RV-8
Method: as §1, §2, §3

rhinovirus type 19 = assay: Inhibition of cytopathic effect in Wl-38 cells, type 19; assay type: cell-based; settings: Enterovirus, WI-38, 25 μg/ml, Wl-38 human embryonic lung cells, read-out: inhibition grade
Method: as §4, §5, §6

rhinovirus type 21 = assay: Inhibition of cytopathic effect in Wl-38 cells, type 21; assay type: cell-based; settings: Enterovirus, WI-38, 25 μg/ml, Wl-38 human embryonic lung cells, read-out: inhibition grade
Method: as §4, §5, §6

rhinovirus type 81 = assay: Inhibition of cytopathic effect in Wl-38 cells, type 81; assay type: cell-based; settings: Enterovirus, WI-38, 25 μg/ml, Wl-38 human embryonic lung cells, read-out: inhibition grade
Method: as §4, §5, §6

Picornaviruses = assay: Antiviral effectiveness against picornaviruses, overall; assay type: cell-based
Method: as §1
Solutions of 4-(4-(methylsulfonyl)phenoxy)-1,2-dichlorobenzene were prepared by dissolving 5 milligrams of the compound in 0.1 ml dimethyl sulfoxide and incubating at 56° C. for at least 15 minutes. This solution was added to 0.9 ml of warmed (56° C.) maintenance medium (49% Eagles, 49% medium 199, 2% fetal calf serum and antibiotics), and the resulting 1.0 ml was then added to 9 ml of warmed (56° C.) maintenance medium. From this solution the final concentrations of 100, 50, 25, or 12.5 μg/ml were made up with maintenance medium. […]

rhinovirus type 39 = assay: Inhibition of cytopathic effect in Wl-38 cells, type 39; assay type: cell-based; settings: Enterovirus, WI-38, 25 μg/ml, Wl-38 human embryonic lung cells, read-out: inhibition grade
Method: as §4, §5, §6

[6] = system: rhinovirus type 1A (RV-1A); assay: Tissue culture antiviral test (HeLa cells), RV-1A; assay type: cell-based; settings: Enterovirus, 48 and 72 hours post-treatment, read-out: Lowest concentration necessary to cause a 50 percent reduction in cytopathic effect, RV-1A
Method: as §1, §2, §3

## CS(=O)(=O)c1ccc(Oc2ccc(Cl)c(Cl)c2)cc1 [Example 1, 4-(4-(Methylsulfonyl)phenoxy)-1,2-dichlorobenzene]
[1]
  MCC: 50 to 100 µg/mL
[2]
  EC50: 2.5 µg/mL (≈ 7.88 µM)
Rhinovirus type 17
  inhibition at 25 µg/mL: ≥ 75%
Cox A21
  antiviral activity in Single Oral Dose test: exhibited antiviral activity
Coxsackie A21 virus
  antiviral activity in Continuous Oral Feeding test: exhibited antiviral activity
Rhinovirus type 10
  inhibition at 25 µg/mL: ≥ 75%
Rhinovirus type 8
  inhibition at 25 µg/mL: < 50%
[3]
  LD50: > 2000 mg/kg
Rhinovirus type 56
  inhibition at 25 µg/mL: ≥ 75%
Rhinovirus type 2 (RV-2)
  EC50: 0.25 µg/mL (≈ 0.788 µM)
Rhinovirus type 58
  inhibition at 25 µg/mL: ≥ 75%
Rhinovirus type 4
  inhibition at 25 µg/mL: ≥ 75%
Rhinovirus type 6
  inhibition at 25 µg/mL: ≥ 75%
Rhinovirus type 75
  inhibition at 25 µg/mL: < 50%
Rhinovirus type 74
  inhibition at 25 µg/mL: ≥ 75%
Acute toxicity in rats; ip, intraperitoneal, read-out: acute toxicity, intraperitoneal administration
  LD50: > 1000 mg/kg
Acute toxicity in rats; oral, read-out: acute oral toxicity
  LD50: > 2000 mg/kg
Rhinovirus type 59
  inhibition at 25 µg/mL: ≥ 75%
[4]
  EC50: 0.25 µg/mL (≈ 0.788 µM)
Rhinovirus type 29
  inhibition at 25 µg/mL: ≥ 75%
Rhinovirus type 68
  inhibition at 25 µg/mL: 50 to 74%
[5]
  inhibition at 25 µg/mL: ≥ 75%
Rhinovirus type 64
  inhibition at 25 µg/mL: ≥ 75%
Rhinovirus type 60
  inhibition at 25 µg/mL: ≥ 75%
Rhinovirus type 13
  inhibition at 25 µg/mL: ≥ 75%
Rhinovirus type 8 (RV-8)
  EC50: ~50 µg/mL (≈ 158 µM)
Rhinovirus type 19
  inhibition at 25 µg/mL: ≥ 75%
Rhinovirus type 21
  inhibition at 25 µg/mL: ≥ 75%
Rhinovirus type 81
  inhibition at 25 µg/mL: ≥ 75%
Picornaviruses
  effectiveness against Picornaviruses: particularly effective against Picornaviruses
Rhinovirus type 39
  inhibition at 25 µg/mL: ≥ 75%
[6]
  EC50: 0.25 µg/mL (≈ 0.788 µM)

Reference: patent US4505929A, “Sulfur-substituted diphenyl ethers having antiviral activity” (The Dow Chemical Company, priority 1982, dated 1985)
